How the values were obtained:
intestinal microflora = experiment: Intestinal microflora in duodenum; format: in vivo, Gallus gallus domesticus; settings: 1.5% rEP in diet, compared to spiraline A and basal diet groups (S3e Fig)
Method: (§1) The growth promoting action of EP may be related to intestinal absorption and as such, small villus morphology was evaluated in a previous study. […] Moreover, growth enhancement has been observed in other reports. For example, feeding mice with PR39 peptide (4.7 kDa proline-rich AMP)-expressing Lactobacillus casei caused jejunum and duodenum villus height in the intestinal villi to increase. Use of recombinant porcine β-defensin 2 (rpBD2) as a feed additive for weaned piglets also produced increases in intestinal villus height of the duodenum and jejunum. Additionally, birds fed with AMP-A3 diet had increased villus height of the duodenum, jejunum and ileum. […] Fig). […] Supplementary file pone.0230021.s003.TIF: S3 Fig Effects of orally administered a rEP on posture, body weight, intestinal morphology, and gut flora. (a) After 28 days of feeding the 1.5% rEP-receiving chickens were larger than the spiraline A and basal diet controls. (b) The effects of feeding 1.5% rEP on body weight. (c) Representative picture of hematoxylin and eosin staining of intestinal villi and crypts. (d) The intestinal villus length and crypt depth were measured. (e) The effects of orally administrated the spiraline A, basal diet, and 1.5% rEP on intestinal microflora in G. g. domesticus. Relative proportions of bacterial families are shown. […]

Gallus gallus domesticus = experiment: Dietary supplementation trial, growth performance and survival; format: in vivo; settings: ad libitum, 35 days (table title: 4 weeks), n = 27; for FE (feed efficiency) / PER (protein efficiency ratio) / Weight gain: mean ± SD
Source text: (§2) A total of 189 male or female 2-day-old G. g. domesticus were randomly assigned to seven dietary treatment groups, including rEP (0.75, 1.5, 3.0, 6.0 and 12%), spiraline-A (Juily Pharmaceutical Co., LTD. San Sia, Taipei Hsien, Taiwan), and basal diet groups. Each treatment group consisted of one cage with twenty-seven G. g. domesticus. The composition of the fodder is presented in S1b–S1d Table. The animals were allowed ad libitum access to fodder and water for the duration of the trial, beginning from 3 days of age. The total time of feeding was 35 days. The G. g. domesticus were maintained in a cage (animal container) with a constant environment (28.9–37.8°C, 12/12 h light-dark cycle). rEP fodder and fecal sewage were not directly discharged to the outside.
(§3) Body weight and survival rate were monitored daily during the experimental period. The weight gain, feed efficiency (FE), protein efficiency ratio (PER), and survival percentage were calculated. After 35 days of treatment, the G. g. domesticus were euthanized, blood samples were collected and serum was obtained by centrifugation (3000 ×g for 15 min at 4°C). Serum was kept at -80°C until analysis. Enzyme-linked immunosorbent assay (ELISA) was performed in accordance with the manufacturer’s standard procedures to determine the levels of immunological factors, including TNF-α, Interleukin-1β, Interleukin-6, Interleukin-10, Lysozyme, Immunoglobin-G (IgG), and Interferon-γ. Chicken serum samples were analyzed with ELISA kits from ABclonal Inc. (Woburn, MA, USA). After the reaction was completed, the optical density (OD) was measured at 450 nm on a microplate reader (SpectraMax® i3, Molecular Devices, Lagerhausstrasse, Wals, Austria).
Data were analyzed with Prism 7 software (GraphPad Inc., La Jolla, CA, USA). Values represent the mean ± standard deviation (SD). P < 0.05 was considered significant for one-way Analysis of variance (ANOVA) with Tukey’s multiple comparison test.

TNF-α = experiment: Serum ELISA after dietary supplementation; format: in vivo, Gallus gallus domesticus; settings: dietary supplementation 35 days, between groups
Source text: as §2, §3

Interleukin-1β = experiment: Serum ELISA after dietary supplementation; format: in vivo, Gallus gallus domesticus; settings: dietary supplementation 35 days, between groups
Source text: as §2, §3

Lysozyme = experiment: Serum ELISA after dietary supplementation; format: in vivo, Gallus gallus domesticus; settings: dietary supplementation 35 days, between groups
Source text: as §2, §3

[1] = test system: Staphylococcus aureus (BCRC 10780); experiment: Inhibition zone (disk diffusion) assay; format: cell-based; settings: then disk diffusion 16 h at 37°C
Method: (§4) All assays were performed in triplicate.
(§5) The antimicrobial activity of rEP from flask cultures was evaluated by determining its ability to prevent growth of Gram-positive and Gram-negative bacteria with a disk diffusion assay. […] The most susceptible pathogens were R. anatipestifer (CFC27) and R. anatipestifer (CFC437) (Table 3a). Next, we investigated the thermostability of flask-fermented rEP with regard to its toxicity toward S. aureus (BCRC 10780), E. coli (BCRC 10675) and P. aeruginosa (ATCC 19660). Empty vector with no insert in P. pastoris was used as a control. Thermostability was measured by disk diffusion assay after cultures were incubated for 5 min at 40, 60, 80, or 100°C (Table 3b).

[2] = test system: Escherichia coli (BCRC 10675); experiment: Inhibition zone (disk diffusion) assay; format: cell-based; settings: then disk diffusion 16 h at 37°C
Method: as §4, §5

[3] = test system: Riemerella anatipestifer (CFC437); experiment: Inhibition zone (disk diffusion) assay; format: cell-based; settings: disk paper 16 h at 37°C, shake-flask supernatant 120 h after induction
Method: as §4, §5

[4] = test system: Riemerella anatipestifer (RA3); experiment: Inhibition zone (disk diffusion) assay; format: cell-based; settings: disk paper 16 h at 37°C, shake-flask supernatant 120 h after induction
Method: as §4, §5

[5] = test system: Pseudomonas aeruginosa (ATCC 19660); experiment: Inhibition zone (disk diffusion) assay; format: cell-based; settings: then disk diffusion 16 h at 37°C
Method: as §4, §5

[6] = test system: Riemerella anatipestifer (CFC27); experiment: Inhibition zone (disk diffusion) assay; format: cell-based; settings: disk paper 16 h at 37°C, shake-flask supernatant 120 h after induction
Method: as §4, §5

duodenum villus = experiment: Intestinal morphology, histological analysis; format: in vivo, Gallus gallus domesticus; settings: rEP animals compared to the control group, hematoxylin and eosin staining (S3 Fig)
Method: as §1

[7] = diet with 0.75% rEP spray-dried powder
[8] = diet with 1.5% rEP spray-dried powder
[9] = diet with 3.0% rEP spray-dried powder
[10] = diet with 6.0% rEP spray-dried powder
[11] = diet with 12.0% rEP spray-dried powder
[12] = thermostability: flask supernatant incubated 5 min at 40°C
[13] = thermostability: flask supernatant incubated 5 min at 60°C
[14] = thermostability: flask supernatant incubated 5 min at 80°C

Sequence: EFFIFHIIKGLFHAGRMIHGLVNRRRHRHHHHHH [rEP, recombinant His-tagged Epinephelus lanceolatus piscidin from Pichia pastoris, used as crude culture supernatant or spray-dried powder]
- Numbers of Enterobacteriaceae and Staphylococcaceae in duodenum (intestinal microflora): decreasing
- Numbers of Lactobacillaceae and Entercoccaceae in duodenum (intestinal microflora): significantly increased
- FE (feed efficiency) (Gallus gallus domesticus; [7]): 0.53±0.03
- PER (protein efficiency ratio) (Gallus gallus domesticus; [7]): 1.58±0.09
- Weight gain (Gallus gallus domesticus; [7]): 2531.80±142.13%
- Survival (Gallus gallus domesticus; [7]): 92.60%
- FE (feed efficiency) (Gallus gallus domesticus; [8]): 0.58±0.03
- PER (protein efficiency ratio) (Gallus gallus domesticus; [8]): 1.8±0.08
- Weight gain (Gallus gallus domesticus; [8]): 2727.42±116.08%
- Survival (Gallus gallus domesticus; [8]): 100%
- FE (feed efficiency) (Gallus gallus domesticus; [9]): 0.57±0.02
- PER (protein efficiency ratio) (Gallus gallus domesticus; [9]): 1.86±0.08
- Weight gain (Gallus gallus domesticus; [9]): 2809.71±119.30%
- Survival (Gallus gallus domesticus; [9]): 96.20%
- FE (feed efficiency) (Gallus gallus domesticus; [10]): 0.57±0.02
- PER (protein efficiency ratio) (Gallus gallus domesticus; [10]): 2.03±0.08
- Weight gain (Gallus gallus domesticus; [10]): 2738.11±109.04%
- Survival (Gallus gallus domesticus; [10]): 100%
- FE (feed efficiency) (Gallus gallus domesticus; [11]): 0.48±0.04
- PER (protein efficiency ratio) (Gallus gallus domesticus; [11]): 2.17±0.16
- Weight gain (Gallus gallus domesticus; [11]): 2181.26±158.95%
- Survival (Gallus gallus domesticus; [11]): 96.20%
- Serum TNF-α level (TNF-α): No significant changes
- Serum IL-1β level (Interleukin-1β): No significant changes
- Serum Lysozyme (Lyz) level (Lysozyme): No significant changes
- Inhibition zone diameter after heat treatment [1, 12]: 10.6±1.5 mm
- Inhibition zone diameter after heat treatment [1, 13]: 9.1±0.7 mm
- Inhibition zone diameter after heat treatment [1, 14]: 9.3±0.5 mm
- Inhibition zone diameter after heat treatment ([1]; thermostability: flask supernatant incubated 5 min at 100°C): 9.3±0.5 mm
- Inhibition zone diameter after heat treatment [2, 12]: 9.0±1.0 mm
- Inhibition zone diameter after heat treatment [2, 13]: 9.0±1.0 mm
- Inhibition zone diameter after heat treatment [2, 14]: 8.6±0.5 mm
- Inhibition zone diameter ([3]; first of two values printed): 11 mm
- Inhibition zone diameter ([3]; second of two values printed): 13 mm
- Inhibition zone diameter ([4]; first of two values printed): 10, 10 mm
- Inhibition zone diameter ([4]; second of two values printed): 10, 10 mm
- Inhibition zone diameter after heat treatment [5, 12]: 10.1±0.3 mm
- Inhibition zone diameter after heat treatment [5, 13]: 9.5±0.2 mm
- Inhibition zone diameter ([6]; first of two values printed): 12 mm
- Inhibition zone diameter ([6]; second of two values printed): 14 mm
- Duodenum villus height (duodenum villus): significantly greater
